Assay results as given in patent US5919897A (priority 1995, dated 1999).
Where no end group is shown, it is not given here. [ ]: non-standard residue; d: D form.

How the values were obtained:
[1] = biological target: T1, μ receptor (Homo sapiens, UniProt P35372); experiment: Adenylyl cyclase assay using human SH-SY5Y neuroblastoma cell line membranes; type: biochemical
T1 construct: An adenylyl cyclase assay using human SH-SY5Y neuroblastoma cell line membranes; endogenous in cells; host or cells: human SH-SY5Y neuroblastoma cells, differentiated with retinoic acid; membranes
T1 sequence (P35372 whole entry): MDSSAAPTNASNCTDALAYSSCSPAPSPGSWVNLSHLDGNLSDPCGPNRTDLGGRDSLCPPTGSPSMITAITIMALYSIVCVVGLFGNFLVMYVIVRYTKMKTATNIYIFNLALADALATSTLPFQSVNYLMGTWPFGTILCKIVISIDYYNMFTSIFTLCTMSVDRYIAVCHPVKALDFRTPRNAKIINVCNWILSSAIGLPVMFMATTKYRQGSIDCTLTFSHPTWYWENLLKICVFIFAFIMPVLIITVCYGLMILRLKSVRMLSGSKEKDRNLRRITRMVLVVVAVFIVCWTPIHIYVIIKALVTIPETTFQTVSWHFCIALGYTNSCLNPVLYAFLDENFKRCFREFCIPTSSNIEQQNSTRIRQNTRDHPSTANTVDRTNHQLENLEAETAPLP
Protocol: An adenylyl cyclase assay using human SH-SY5Y neuroblastoma cell line membranes was used to rapidly determine the opioid agonists or antagonist properties of individual peptides.
After the initial centrifugation at 200×g for 15 min at 4° C., the cells were resuspended in sucrose buffer (0.32M sucrose, 40 mM HEPES, 2 mM EDTA, pH 7.6). Cells were centrifuged again at 200×g, then homogenized in sucrose buffer with five strokes of a Dounce Homogenizer (Wheaton Instruments, Millville, N.J.). Membranes were centrifuged at 22000×g for 20 min at 4° C., then resuspended in sucrose buffer. […] SH-SY5Y membranes at a protein concentration of 1-4 mg/ml were stored at -80° C.
SH-SY5Y membranes were incubated in a final volume of 100 μl of 40 mM HEPES, pH 7.7, containing 15 units of creatine phosphokinase, 20 mM phosphocreatine, 1 mM 1,10-o-phenanthroline, 60 μM isobutylmethylxanthine (IBMX), 50 μM ATP, 50 μM GTP, 3 mM MgCl2 and 100 mM NaCl. Each of the agonists and antagonists tested were included at final concentrations of 100 μM and 500 μM, respectively. The reaction was initiated by the addition of 36 μg of membrane protein. After 15 min at 30° C., the reaction was stopped by the addition of 100μl of cold 4.5% perchloric acid. The samples were neutralized by the addition 40 μl of cold 30% potassium bicarbonate. Finally, the membranes were centrifuged at 12000×g for 4 min at 4° C. in a microcentrifuge; The amount of cyclic AMP present in 100μl of the supernatant, equivalent to the cyclic AMP produced by 15 μg of membrane protein, was determined using a cyclic AMP kit (Diagnostic Products, Los Angeles, Calif.). […] [^3 H]-cyclic AMP, 0.9 μCi, was added into 6 ml of H2 O, and 100 μl of the diluted [^3 H]-cyclic AMP was added to the assay tubes. The final supernatants were counted in 10 ml of Ecolite (+) scintillation fluid (ICN Pharmaceuticals, Covina, Calif.).

[2] = tested on: MU RECEPTOR; experiment: Mu receptor agonist or antagonist activity, by either the adenylyl cyclase assay or the GPI assay (Table 13)

Molecule	% Basal Control (cyclic AMP) ([1]; DAMGO 1 μM alone, ANTAGONISTS section)	% Basal Control +ICI 174,864 ([1]; DAMGO 1 μM, ANTAGONISTS section)	% Basal Control +ICI 174,864 ([1]; agonist 100 μM plus ICI 174,864 (antagonists 500 μM))	% Basal Control +Naloxone ([1]; agonist 100 μM plus naloxone (antagonists 500 μM))	% Basal Control (cyclic AMP) ([1]; agonist alone, 100 μM, SH-SY5Y membranes)	AGONIST OR ANTAGONIST [2]
C[C@@H](NC(=O)[C@@H](N)Cc1ccc(O)cc1)C(=O)NCC(=O)N(C)[C@@H](Cc1ccccc1)C(=O)NCCO [DAMGO, [D-Ala^2,MePhe^4, Gly-ol^5]enkephalin]	61 ± 5%	95 ± 3%	28 ± 3%	77 ± 8%	34 ± 6%	–
[dI][dM][dT][dW]G[dP]-NH2 [SEQ ID NO. 130]	–	–	–	–	–	Agonist
